{"source": "patent US20120009152A1", "about": "“NITRIC OXIDE DONORS FOR TREATMENT OF DISEASE AND INJURY” (priority 2002, published 2012)", "key": {"[1]": {"tested_on": "brain-derived endothelial cells", "test": "Endothelial tube formation, total tube length", "type": "cell-based", "details": "vs control medium DMEM 1.4 (0.1); p<0.01", "description": "The enhance induction of angiogenesis is also evident from in vitro studies of tubule formation in brain derived endothelial cells. […] The endothelial cells formed a network of capillary-like structures with numerous intercellular contacts."}, "[2]": {"tested_on": "BrdU positive cells in the subventricular zone", "test": "BrdU positive cells in ipsilateral subventricular zone, combination study", "type": "in vivo, rat", "details": "treatment 1 day after MCAo; NN 0.4 mg/kg IP, hMSCs 1×10^6 cells iv; PBS control 29.8±8.8", "protocol": "Male Wistar rats (n=32) were subjected to middle cerebral artery occlusion (MCAo) and were randomized with 8 rats in four treatment groups, with treatment initiated 1 day after stroke. Groups included: 1) phosphate buffered saline (PBS); 2) subtherapeutic DETA-NONOate (NN) at a dose of 0.4 mg/kg (IP); 3) subtherapeutic hMSCs (1×10^6 cells-iv); and 4) combination subtherapeutic NN and hMSCs. Functional outcome measurements consisted of a Neurologic Severity Scale (18 point scale) (NSS) and the Adhesive Removal Test performed prior to stroke, immediately before treatment and at 7 and 14 days after treatment. […] However, there was an overall hMSC effect on NSS at 14 days.\nBrdU (50 mg/kg-ip) was injected daily for 14 days after treatment in all groups. BrdU is a thymidine analog that labels newly formed DNA and thereby identifies newly formed cells. […] BrdU found in the cytoplasm of macrophage-like cells were not counted. […] The percentage of BrdU reactive cells that express NeuN and GFAP proteins was approximately, 3%, 3% and 6%, respectively."}, "[3]": {"tested_on": "BrdU immunoreactive cells in dentate gyrus, SVZ and OB", "test": "Cell proliferation (BrdU) in non-ischemic aged rats", "type": "in vivo, rat", "details": "non-ischemic 18-month-old rats; DETA/NONOate 0.4 mg/kg daily 7 days; vs saline", "protocol": "[…] […] I.V bolus doses of DETA/NONOate (0.1 mg/kg each, every 15 min, and total dose of 0.4 mg/kg) on the first experimental day and DETA/NONOate (0.4 mg/kg) was administered (i.p) daily for an additional 6 consecutive days. Rats that received saline were used as a control group. Bromodeoxyuridine (BrdU) was used as mitotic labeling to measure cell proliferation. Animals received daily i.p injections of BrdU (50 mg/kg, Sigma) on the first experimental day and subsequently for 14 consecutive days. Rats were sacrificed at 14 and 42 days after the treatment. BrdU immunoreactive nuclei were counted on a computer monitor to improve visualization and in one focal plane to avoid over-sampling. Structures were sampled either by selecting predetermined areas on each section (OB) or by analyzing entire structures on each section (SVZ and dentate gyrus) (Zhang et al., 2001). All BrdU immunoreactive-positive nuclei in these areas are presented as the number of the BrdU immunoreactive cells/mm^2. Density for the selected several sections was averaged to obtain a mean density value for each animal (Zhang et al., 2001).\nThe question of whether this induction of neurogenesis by means of an NO donor in young adult (3-4 month old) rats would also be present in older rats was also tested. […]"}, "[4]": {"tested_on": "rats subjected to embolic middle cerebral artery occlusion", "test": "Foot-fault test after embolic MCA occlusion", "type": "in vivo, rat", "protocol": "Male Wistar rats weighing 320 to 380 g were used in the present study. The middle cerebral artery (MCA) was occluded by placement of an embolus at the origin of the MCA.\nIschemic rats (n=9) were treated with the same volume of tap water as a control group. Functional tests were performed and body weight was measured before ischemia and at 4, 7, 14, 21, and 28 days after onset of MCA occlusion. All rats were killed 28 days after MCA occlusion. […] These rats were killed 1 hour after the last treatment for measurements of brain levels of cGMP. […] Experiments were also performed to examine brain PDE5, nonischemic rats and ischemic rats were killed at 2, 4, 24, 48, and 168 hours after the onset of ischemia (n=3 for each time point). Reverse transcription (RT)-polymerase chain reaction (PCR) was performed to detect PDE5 in brain tissue.\nRats were tested for placement dysfunction of forelimbs with the modified foot-fault test before ischemia and at 4, 7, 14, 21, and 28 days after embolic ischemia. Rats were set on an elevated hexagonal grid of different sizes and placed their paws on the wire while moving along the grid. With each weight-bearing step, the paw may fall or slip between the wire. The total number of steps (movement of each forelimb) that the rat used to cross the grid was counted, and the total number of foot-faults for each forelimb was recorded."}, "nonischemic rats": {"tested_on": "nonischemic rats", "test": "Localized CBF by laser-Doppler flowmetry", "type": "in vivo, rat", "details": "sildenafil 2 mg/kg", "protocol": "Ischemic rats (n=9) were treated with the same volume of tap water as a control group. Functional tests were performed and body weight was measured before ischemia and at 4, 7, 14, 21, and 28 days after onset of MCA occlusion. All rats were killed 28 days after MCA occlusion. […] These rats were killed 1 hour after the last treatment for measurements of brain levels of cGMP. […] Reverse transcription (RT)-polymerase chain reaction (PCR) was performed to detect PDE5 in brain tissue. Relative erythrocyte flow velocity was measured by laser-Doppler flowmetry (PeriFlux PF4 flowmeter; Perimed AB) in the tissue under the laser-Doppler flowmetry probe. 13 A burr hole 1.5 mm in diameter was drawn on the skull 2 mm posterior to the bregma and 6 mm lateral to midline. 13 The dura was left intact. After the application of mineral oil onto the burr hole, the probe was laced 0.5 mm above the dural surface. […] This measurement reflects relatively localized CBF. 14 Values of flow velocities are presented as a percentage of the contralateral hemispheric values."}, "[5]": {"details": "cited from earlier work"}}, "data": [{"smiles": "NCCN(CCN)/[N+]([O-])=N/O", "note": "[DETANONOate, (Z)-1-[N-(2-aminoethyl)-N-(2-ammonioethyl)aminio]diazen-1-ium-1,2-diolate]", "values": [{"measurement": "Total tube length", "setting": "[1]", "value": "4.6±0.6", "unit": "mm/mm^2"}, {"measurement": "BrdU positive cells in the ipsilateral hemisphere subventricular zone", "setting": "[2]", "value": "43.6±10.0 /section"}, {"measurement": "number of proliferating cells (dentate gyrus, SVZ, OB)", "setting": "[3]", "value": "significantly increased the number of proliferating cells"}]}, {"smiles": "CCCc1nn(C)c2c(=O)[nH]c(-c3cc(S(=O)(=O)N4CCN(C)CC4)ccc3OCC)nc12", "note": "[Sildenafil]", "values": [{"measurement": "% of Foot-Faults", "setting": "[4]; Sildenafil 2 mg/kg, 2 h, 4 d after ischemia", "value": "22.81 ± 3.1", "unit": "%"}, {"measurement": "% of Foot-Faults", "setting": "[4]; Sildenafil 2 mg/kg, 2 h, 7 d", "value": "15.2 ± 1.6", "unit": "%"}, {"measurement": "% of Foot-Faults", "setting": "[4]; Sildenafil 2 mg/kg, 2 h, 14 d", "value": "13.2 ± 1.2", "unit": "%"}, {"measurement": "% of Foot-Faults", "setting": "[4]; Sildenafil 2 mg/kg, 2 h, 21 d", "value": "9.1 ± 1.5", "unit": "%"}, {"measurement": "% of Foot-Faults", "setting": "[4]; Sildenafil 2 mg/kg, 2 h, 28 d", "value": "8.2 ± 1.4", "unit": "%"}, {"measurement": "% of Foot-Faults", "setting": "[4]; Sildenafil 2 mg/kg, 2 h group, Before Ischemia (baseline)", "value": "1.1 ± 0.01", "unit": "%"}, {"measurement": "% of Foot-Faults", "setting": "[4]; Sildenafil 2 mg/kg, 24 h, 4 d", "value": "25.3 ± 3.8", "unit": "%"}, {"measurement": "% of Foot-Faults", "setting": "[4]; Sildenafil 2 mg/kg, 24 h, 7 d", "value": "14.4 ± 1.0", "unit": "%"}, {"measurement": "% of Foot-Faults", "setting": "[4]; Sildenafil 2 mg/kg, 24 h, 14 d", "value": "10.0 ± 0.5", "unit": "%"}, {"measurement": "% of Foot-Faults", "setting": "[4]; Sildenafil 2 mg/kg, 24 h, 21 d", "value": "9.0 ± 0.5", "unit": "%"}, {"measurement": "% of Foot-Faults", "setting": "[4]; Sildenafil 2 mg/kg, 24 h, 28 d", "value": "5.3 ± 0.8", "unit": "%"}, {"measurement": "% of Foot-Faults", "setting": "[4]; Sildenafil 2 mg/kg, 24 h group, Before Ischemia (baseline)", "value": "1.03 ± 0.03", "unit": "%"}, {"measurement": "% of Foot-Faults", "setting": "[4]; Sildenafil 5 mg/kg, 2 h, 4 d", "value": "17.9 ± 2.9", "unit": "%"}, {"measurement": "% of Foot-Faults", "setting": "[4]; Sildenafil 5 mg/kg, 2 h, 7 d", "value": "16.6 ± 1.4", "unit": "%"}, {"measurement": "% of Foot-Faults", "setting": "[4]; Sildenafil 5 mg/kg, 2 h, 14 d", "value": "14.6 ± 2.1", "unit": "%"}, {"measurement": "% of Foot-Faults", "setting": "[4]; Sildenafil 5 mg/kg, 2 h, 21 d", "value": "9.5 ± 1.6", "unit": "%"}, {"measurement": "% of Foot-Faults", "setting": "[4]; Sildenafil 5 mg/kg, 2 h, 28 d", "value": "7.6 ± 1.4", "unit": "%"}, {"measurement": "% of Foot-Faults", "setting": "[4]; Sildenafil 5 mg/kg, 2 h group, Before Ischemia (baseline)", "value": "1.02 ± 0.02", "unit": "%"}, {"measurement": "duration of significantly increased localized CBF after administration", "setting": "nonischemic rats", "value": 70, "unit": "min"}, {"measurement": "localized CBF levels", "setting": "nonischemic rats; vs control rats", "value": "significantly increased localized CBF levels"}, {"measurement": "half-life in rats", "setting": "[5]", "value": 24, "unit": "min"}]}]}
